Data reported in patent US10246456B2, “IRAK4 inhibiting agents” (BIOGEN MA INC., priority 2014, dated 2019).

Key:
IL-6 in A549 cells = assay: Cell-based IL-6 ELISA assay in IL-1beta stimulated A549 cells; settings: 2 ng/ml human IL-1beta overnight
In short: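 A549 cells (2.5×10^4/well, DMEM/10% FBS) pretreated 30 min at 37 C with compound, 10-point serial dilution from 10 uM, then stimulated overnight with 2 ng/ml human IL-1beta. Secreted IL-6 in supernatant quantified by human IL-6 ELISA.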

IRAK4 = IRAK4 (Homo sapiens (Human), UniProt Q9NWZ3); assay: IRAK-4 AlphaScreen biochemical kinase assay; settings: 1 nM IRAK4, 1 mM ATP, 3.5 h at RT
Chain of IRAK4 (Q9NWZ3 whole entry, species assumed): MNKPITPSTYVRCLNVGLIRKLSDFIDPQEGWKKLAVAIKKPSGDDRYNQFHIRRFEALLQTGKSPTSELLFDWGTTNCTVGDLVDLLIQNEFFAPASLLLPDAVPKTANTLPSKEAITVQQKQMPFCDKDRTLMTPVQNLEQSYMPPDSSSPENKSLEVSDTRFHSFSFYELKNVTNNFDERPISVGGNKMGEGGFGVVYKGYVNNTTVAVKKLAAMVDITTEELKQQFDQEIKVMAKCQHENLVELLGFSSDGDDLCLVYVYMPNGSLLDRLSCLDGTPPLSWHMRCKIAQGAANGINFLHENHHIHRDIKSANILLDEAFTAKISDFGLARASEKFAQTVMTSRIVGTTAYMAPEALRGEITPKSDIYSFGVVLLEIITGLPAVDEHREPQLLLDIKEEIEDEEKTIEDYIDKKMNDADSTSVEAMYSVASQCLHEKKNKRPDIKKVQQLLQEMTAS
In short: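 AlphaScreen read-out: streptavidin beads bind the biotinylated peptide and protein A beads bind the anti-phosphothreonine antibody, so energy transfer reports phosphorylation of the peptide. The kinase is human IRAK-4.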

| SMILES | EC50 (IL-6 in A549 cells) [µM] | IC50 (IRAK4) [µM] |
| --- | --- | --- |
| CCOc1cc(-c2cccc([C@@H](N)[C@@H](F)CC)n2)cc2c1cnn2-c1cccc(CO)n1 [Example 442, (6-(6-(6-((1R,2S)-1-amino-2-fluorobutyl)pyridin-2-yl)-4-ethoxy-1H-indazol-1-yl)pyridin-2-yl)methanol] | ≤ 1 | < 0.1 |
| CCOc1cc(-c2cccc([C@@H](N)[C@H](F)CC)n2)cc2c1cnn2-c1cccc(CO)n1 [Example 443, (6-(6-(6-((1R,2R)-1-amino-2-fluorobutyl)pyridin-2-yl)-4-ethoxy-1H-indazol-1-yl)pyridin-2-yl)methanol] | ≤ 1 | < 0.1 |
| CCOc1cc(-c2cccc([C@@H](N)[C@H](CC)OC)n2)cc2c1cnn2-c1cccc(CO)n1 [Example 444, (6-(6-(6-((1R,2S)-1-amino-2-methoxybutyl)pyridin-2-yl)-4-ethoxy-1H-indazol-1-yl)pyridin-2-yl)methanol] | 1 to 10 | < 0.1 |
| CC1(CC(N)c2cccc(-c3ccc4cnn(-c5cccc(CO)n5)c4c3)n2)COC1 (stereo not shown) [Example 448, (6-(6-(6-(1-amino-2-(3-methyloxetan-3-yl)ethyl)pyridin-2-yl)-1H-indazol-1-yl)pyridin-2-yl)methanol] | 1 to 10 | < 0.1 |
| CCC[C@H](N)c1cccc(-c2ccc3cnn(-c4cccc(C=O)n4)c3c2)n1 [Example 450, (S)-6-(6-(6-(1-aminobutyl)pyridin-2-yl)-1H-indazol-1-yl)picolinaldehyde] | 1 to 10 | < 0.1 |
| CCC[C@H](N)c1cccc(-c2ccc3cnn(-c4cccc([C@H](O)C(F)(F)F)n4)c3c2)n1 [Example 452, (S)-1-(6-(6-(6-((S)-1-aminobutyl)pyridin-2-yl)-1H-indazol-1-yl)pyridin-2-yl)-2,2,2-trifluoroethanol] | 1 to 10 | < 0.1 |
| CC[C@@H](F)[C@H](N)c1cccc(-c2cc(OCCOC)c3cnn(-c4cccc(CO)n4)c3c2)n1 [Example 453, (6-(6-(6-((1R,2R)-1-amino-2-fluorobutyl)pyridin-2-yl)-4-(2-methoxyethoxy)-1H-indazol-1-yl)pyridin-2-yl)methanol] | ≤ 1 | < 0.1 |
| CC[C@H](F)[C@H](N)c1cccc(-c2cc(OCCOC)c3cnn(-c4cccc(CO)n4)c3c2)n1 [Example 454, (6-(6-(6-((1R,2S)-1-amino-2-fluorobutyl)pyridin-2-yl)-4-(2-methoxyethoxy)-1H-indazol-1-yl)pyridin-2-yl)methanol] | ≤ 1 | < 0.1 |
| CCC[C@H](N)c1cccc(-c2cc(OC)c3cnn(-c4cccc(CO)n4)c3c2)n1 [Example 463, (S)-(6-(6-(6-(1-aminobutyl)pyridin-2-yl)-4-methoxy-1H-indazol-1-yl)pyridin-2-yl)methanol] | ≤ 1 | < 0.1 |
| CCC[C@H](N)c1cccc(-c2cc(OC(C)C)c3cnn(-c4cccc(CO)n4)c3c2)n1 [Example 483, (6-{6-[6-((S)-1-Amino-butyl)-pyridin-2-yl]-4-isopropoxy-indazol-1-yl}-pyridin-2-yl)-methanol] | ≤ 1 | < 0.1 |
| CC[C@H](N)c1cccc(-c2cc(NC)c3cnn(-c4cccc(CO)n4)c3c2)n1 [Example 485, (S)-(6-(6-(6-(1-aminopropyl)pyridin-2-yl)-4-(methylamino)-1H-indazol-1-yl)pyridin-2-yl)methanol] | ≤ 1 | < 0.1 |
| CCC[C@H](N)c1cccc(-c2ccc3cnn(-c4nccc(C(F)F)n4)c3c2)n1 [Example 486, (S)-1-(6-(1-(4-(difluoromethyl)pyrimidin-2-yl)-1H-indazol-6-yl)pyridin-2-yl)butan-1-amine] | ≤ 1 | < 0.1 |
| CCC[C@H](N)c1cccc(-c2cc(CF)c3cnn(-c4cccc(CO)n4)c3c2)n1 [Example 487, (S)-(6-(6-(6-(l-aminobutyl)pyridin-2-yl)-4-(fluoromethyl)-1H-indazol-1-yl)pyridin-2-yl)methanol] | ≤ 1 | < 0.1 |
| CCC[C@H](N)c1cccc(-c2cc(C3=CCN(C(C)=O)CC3)c3cnn(-c4cccc(CO)n4)c3c2)n1 [Example 488, (S)-1-(4-(6-(6-(1-aminobutyl)pyridin-2-yl)-1-(6-(hydroxymethyl)pyridin-2-yl)-1H-indazol-4-yl)-5,6-dihydropyridin-1(2H)-yl)ethanone] | ≤ 1 | < 0.1 |
| CCC[C@H](N)c1cccc(-c2cc(OC)c3cnn(-c4cncc(CO)n4)c3c2)n1 [Example 489, (S)-(6-(6-(6-(1-aminobutyl)pyridin-2-yl)-4-methoxy-1H-indazol-1-yl)pyrazin-2-yl)methanol] | ≤ 1 | < 0.1 |
| CCC[C@H](N)c1cccc(-c2cc(Cl)c3cnn(-c4cccc(CO)n4)c3c2)n1 [Example 490, (S)-(6-(6-(6-(1-aminobutyl)pyridin-2-yl)-4-chloro-1H-indazol-1-yl)pyridin-2-yl)methanol] | ≤ 1 | < 0.1 |
| CCC[C@H](N)c1cccc(-c2cc(C(F)F)c3cnn(-c4cccc(CO)n4)c3c2)n1 [Example 491, (S)-(6-(6-(6-(1-aminobutyl)pyridin-2-yl)-4-(difluoromethyl)-1H-indazol-1-yl)pyridin-2-yl)methanol] | ≤ 1 | < 0.1 |
| CCC[C@H](N)c1cccc(-c2cc(CO)c3cnn(-c4cccc(CO)n4)c3c2)n1 [Example 492, (S)-(6-(6-(1-aminobutyl)pyridin-2-yl)-1-(6-(hydroxymethyl)pyridin-2-yl)-1H-indazol-4-yl)methanol] | ≤ 1 | < 0.1 |
| CCCC[C@H](N)c1cccc(-c2ccc3cnn(-c4cccc(CO)n4)c3c2)n1 [Example 493, (S)-(6-(6-(6-(1-aminopentyl)pyridin-2-yl)-1H-indazol-1-yl)pyridin-2-yl)methanol] | ≤ 1 | < 0.1 |

Results, then the compound that gave them:

| EC50 (IL-6 in A549 cells) [µM] | IC50 (IRAK4) [µM] | SMILES |
| --- | --- | --- |
| ≤ 1 | < 0.1 | CCOc1cc(-c2cccc([C@@H](N)CC(C)(F)F)n2)cc2c1cnn2-c1cccc(CO)n1 [Example 438, (S)-(6-(6-(6-(1-amino-3,3-difluorobutyl)pyridin-2-yl)-4-ethoxy-1H-indazol-1-yl)pyridin-2-yl)methanol] |
| ≤ 1 | < 0.1 | CCOc1cc(-c2cccc([C@H](N)c3ccccc3)n2)cc2c1cnn2-c1cccc(CO)n1 [Example 439, (R)-(6-(6-(6-(amino(phenyl)methyl)pyridin-2-yl)-4-ethoxy-1H-indazol-1-yl)pyridin-2-yl)methanol] |
| ≤ 1 | < 0.1 | CCOc1cc(-c2cccc([C@@H](N)[C@@H](CC)OC)n2)cc2c1cnn2-c1cccc(CO)n1 [Example 445, (6-(6-(6-((1R,2R)-1-amino-2-methoxybutyl)pyridin-2-yl)-4-ethoxy-1H-indazol-1-yl)pyridin-2-yl)methanol] |
| ≤ 1 | < 0.1 | NC(c1cccc(-c2ccc3cnn(-c4cccc(CO)n4)c3c2)n1)C1COC1 (stereo not shown) [Example 446, (6-(6-(6-(amino(oxetan-3-yl)methyl)pyridin-2-yl)-1H-indazol-1-yl)pyridin-2-yl)methanol] |
| ≤ 1 | < 0.1 | CCOc1cc(-c2cccc(C(N)C3COC3)n2)cc2c1cnn2-c1cccc(CO)n1 (stereo not shown) [Example 447, (6-(6-(6-(amino(oxetan-3-yl)methyl)pyridin-2-yl)-4-ethoxy-1H-indazol-1-yl)pyridin-2-yl)methanol] |
| ≤ 1 | < 0.1 | CCC[C@H](N)c1cccc(-c2ccc3cnn(-c4cccc([C@@H](O)C(F)(F)F)n4)c3c2)n1 [Example 451, (R)-1-(6-(6-(6-((S)-1-aminobutyl)pyridin-2-yl)-1H-indazol-1-yl)pyridin-2-yl)-2,2,2-trifluoroethanol] |
| ≤ 1 | < 0.1 | CCC[C@H](N)c1cccc(-c2cc(OCCCOC)c3cnn(-c4cccc(CO)n4)c3c2)n1 [Example 456, (S)-(6-(6-(6-(1-aminobutyl)pyridin-2-yl)-4-(3-methoxypropoxy)-1H-indazol-1-yl)pyridin-2-yl)methanol] |
| ≤ 1 | < 0.1 | CC[C@H](N)c1cccc(-c2cc(OCCCOC)c3cnn(-c4cccc(CO)n4)c3c2)n1 [Example 457, (S)-(6-(6-(6-(1-aminopropyl)pyridin-2-yl)-4-(3-methoxypropoxy)-1H-indazol-1-yl)pyridin-2-yl)methanol] |
| ≤ 1 | < 0.1 | COCCCOc1cc(-c2cccc([C@H](C)N)n2)cc2c1cnn2-c1cccc(CO)n1 [Example 458, (S)-(6-(6-(6-(1-aminoethyl)pyridin-2-yl)-4-(3-methoxypropoxy)-1H-indazol-1-yl)pyridin-2-yl)methanol] |
| ≤ 1 | < 0.1 | CCC[C@H](N)c1cccc(-c2cc(OCC)c3cnn(-c4cccc(CO)n4)c3c2)n1 [Example 464, (S)-(6-(6-(6-(1-aminobutyl)pyridin-2-yl)-4-ethoxy-1H-indazol-1-yl)pyridin-2-yl)methanol] |
| ≤ 1 | < 0.1 | CC[C@H](N)c1cccc(-c2cc(F)c3cnn(-c4cccc(CO)n4)c3c2)n1 [Example 473, (S)-(6-(6-(6-(1-aminopropyl)pyridin-2-yl)-4-fluoro-1H-indazol-1-yl)pyridin-2-yl)methanol] |
| ≤ 1 | < 0.1 | CCC[C@H](N)c1cccc(-c2cc(F)c3cnn(-c4cccc(CO)n4)c3c2)n1 [Example 474, (6-{6-[6-((S)-1-Amino-butyl)-pyridin-2-yl]-4-fluoro-indazol-1-yl}-pyridin-2-yl)-methanol] |
| ≤ 1 | < 0.1 | CCC[C@H](N)c1cccc(-c2cc(OCCOC)c3cnn(-c4cccc(CO)n4)c3c2)n1 [Example 476, (S)-(6-(6-(6-(1-aminobutyl)pyridin-2-yl)-4-(2-methoxyethoxy)-1H-indazol-1-yl)pyridin-2-yl)methanol] |
